Non-standard residues stand in square brackets, D forms with d. No end group written: not given here.
What was measured:
3T3-L1 mouse adipocytes [1] = experiment: Free fatty acid levels in 3T3-L1 mouse adipocytes (Example 12, 10 μM); assay type: cell-based; details: peptide 10 μM, 20-22 h then 3 h with isoproterenol 1 nM
Description: The effect of the peptides on fatty acid metabolism can be assessed using an assay of free fatty acid levels in cultured cells such as mouse adipocytes. Peptides were initially prepared as 10 mM stock in DMSO, diluted to 1 mM in H2O, and used at a final concentration of 10 μM (0.1% DMSO). […] Insulin at 100 nM was added to control wells.

C2C12 cells [2] = experiment: Caspase 3/7 activity in C2C12 cells; assay type: cell-based, mouse; details: peptide 10 μM, 24 hours, relative to 0.1% DMSO control
Description: The effect of the peptides on cell death/survival can be assessed using a caspase-3/7 assay in cultured cells such as mouse myoblast cells. Peptides were initially prepared as 10 mM stock in DMSO, diluted to 1 mM in H2O, and used at a final concentration of 10 μM (0.1% DMSO). […] Staurosporine (Abcam, Cambridge, Mass.) was dissolved at 10 mM in DMSO as a stock solution. Caspase-Glo 3/7 Assay Reagent was purchased from Promega (Madison, Wis.). C2C12 cell line was purchased from American Type Culture Collection (Manassas, Va.). C2C12 cells were grown in DMEM supplemented with 20% FBS with 100 IU/ml penicillin and 100 μg/ml streptomycin. […] C2C12 cells were seeded at 4,000 cells per well on 96-well plates. […] Caspase 3/7 activity was determined using a Caspase-Glo 3/7 Assay kit according to the manufacturer's instructions. Luminescence for each sample well on the plate was measured using a Cytation 3 plate reader (BioTek, Winooski, Vt.). Activity was calculated relative to 0.1% DMSO control.

3T3-L1 mouse adipocytes [3] = experiment: Free fatty acid levels in cultured 3T3-L1 mouse adipocytes and insulin dependence (Example 17); assay type: cell-based; details: isoproterenol 0.1 nM; for Free Fatty Acid Levels, Percent of Isoproterenol Control Activity No Insulin: peptide 10 μM alone, relative to isoproterenol treated cells; for Free Fatty Acid Levels, Percent of Isoproterenol Control Activity With Insulin: peptide 10 μM with 0.25 nM insulin, relative to 0.25 nM insulin treated cells
C2C12 cells [4] = experiment: Cellular ROS levels induced by TBHP in C2C12 cells (DCFDA); assay type: cell-based, mouse; details: peptide 10 μM 18-20 hours, then TBHP 100 μM 1 hour; relative to TBHP control
Description: The protective or synergistic effect of the peptides on cellular levels of reactive oxygen species (ROS) induced by oxidative stress can be assessed using an assay of ROS in cultured cells such as mouse myoblasts exposed to a suitable oxidative stress. Peptides were initially prepared as 10 mM stock in DMSO, diluted to 1 mM in H2O, and added at a final concentration of 10 μM (0.1% DMSO). […] TBHP was used at final concentration of 100 μM. Sulforaphane at final concentration of 10 μM was used as a protective control against TBHP induced ROS production. […] C2C12 cells were grown in DMEM supplemented with 20% FBS with 100 IU/ml penicillin and 100 μg/ml streptomycin. […] C2C12 cells were seeded at 7,500 cells per well on 96-well plates. […] After 18-20 hours of incubation the cells were loaded with DCFDA for 45 min. TBHP at 100 μM was then added to the appropriate wells for 1 hour. ROS activity was determined using a DCFDA Cellular ROS Detection Assay kit (Abcam, Cambridge, Mass.) according to the manufacturer's instructions. Fluorescence in each sample well on the plate was measured using a Cytation 3 plate reader at Ex/Em=485/535 nm (BioTek, Winooski, Vt.). Activity was calculated relative to TBHP control. The relative standard deviation of the sulforaphane control was <20%. The ROS level produced by the sulforaphane control in the presence of TBHP was 52% of the TBHP control.

C2C12 cells [5] = experiment: Glucose utilization in cultured C2C12 cells and insulin dependence; assay type: cell-based, mouse; details: 22 h; for Glucose Utilization, Percent of Control Activity No Insulin: peptide 10 μM alone, glucose in medium relative to untreated cells; for Glucose Utilization, Percent of Control Activity With Insulin: peptide 10 μM with 5-20 nM insulin, glucose in medium relative to insulin treated cells
Text: The effect of the peptides on glucose homeostasis can be assessed using an assay to monitor glucose utilization by cultured cells such as mouse myotubes. […] C2C12 mouse muscle cell line was purchased from Millipore Sigma (Saint Louis, Mo.). […] Three days after plating the medium was removed and with Differentiation Medium (DMEM/low glucose (1 g/L)+2% Horse Serum+antibiotics) added. […] After 5 days of differentiation, the medium was removed from myotube cultures and replaced with Assay Medium (DMEM/low glucose (1 g/L)+antibiotics). […] Following the 5 h incubation the medium was removed and fresh Assay Medium containing compounds added; 10 μM peptide in absence or presence of 5-20 nM insulin, or 1 mM metformin as a potent stimulator of glucose utilization. […] Following 22 h incubation, conditioned medium from each well was transferred to a fresh 96-well plate. Glucose concentrations in the medium were determined using a Glucose Assay kit (Abcam; Cambridge, Mass.) according to the manufacturer's instructions; absorbance measured using a Cytation 3 plate reader at 570 nm (BioTek, Winooski, Vt.). Absorbance values were expressed as percent control activity relative to untreated treated cells (no insulin) for 10 μM peptide alone or 5-20 nM insulin treated cells (with insulin) for 10 μM peptide in presence of 5-20 nM insulin. Untreated cells were used as reference for basal glucose utilization. The relative standard deviation from plate to plate of untreated control was <10%. Metformin at 1 mM was used as a potent control for increasing glucose utilization. Glucose levels for metformin (1 mM) treatment were <10% of the untreated control value. Data are presented as averages values from 2-3 independent experiments with each data point performed in triplicate.

Row | Molecule | Free Fatty Acid Levels, Percent of Isoproterenol Control Activity (3T3-L1 mouse adipocytes [1]) [%] | Caspase 3/7 Activity, Percent of Control Activity (C2C12 cells [2]) [%] | Free Fatty Acid Levels, Percent of Isoproterenol Control Activity No Insulin (3T3-L1 mouse adipocytes [3]) [%] | Free Fatty Acid Levels, Percent of Isoproterenol Control Activity With Insulin (3T3-L1 mouse adipocytes [3]) [%] | Cellular ROS Levels Induced by TBHP, Percent of Control (C2C12 cells [4]) [%] | Glucose Utilization, Percent of Control Activity No Insulin (C2C12 cells [5]) [%] | Glucose Utilization, Percent of Control Activity With Insulin (C2C12 cells [5]) [%]
1 | 18 (RRXXGXVFQCLCGA; (3)..(3) Xaa is Norleucine; (4)..(4) Xaa is Norleucine; (6)..(6) Xaa is Norleucine; (14)..(14) D-Ala) [compound 18] | 77.3 | 93.8 | 110 | 81.1 | 109.4 | 103.6 | 122.1
2 | 11 (RRMMGMVAQCLCGA) [compound 11] | 59.2 | 99.1 | 104 | 58.5 | 100.6 | 107.2 | 84.5
3 | 16 (RRMMGMVFQCLSG[dA]) [compound 16] | 58.8 | 93.1 | 110 | 63.0 | 106.6 | 99.7 | 88.4
4 | 12 (RRMMGMVEQCLCG[dA]; cysteine pairing not given here) [compound 12] | 51.3 | 105.1 | 103 | 54.6 | 105 | 102.3 | 84.5
5 | CSCC[C@H](NC(=O)CNC(=O)[C@H](CCSC)NC(=O)[C@H](CCSC)NC(=O)[C@H](CCCNC(=N)N)NC(=O)[C@@H](N)CCCNC(=N)N)C(=O)N[C@H](C(=O)N[C@@H](Cc1ccccc1)C(=O)N[C@@H](CCC(N)=O)C(=O)N[C@@H](CO)C(=O)N[C@@H](CC(C)C)C(=O)N[C@@H](CS)C(=O)NCC(=O)N[C@H](C)C(=O)O)C(C)C [compound 15] | 90.8 | 101.6 | 109 | 89.0 | 105.9 | 103 | 106.9
6 | 17 (RRMMGMVFQSLSG[dA]) [compound 17] | 77.9 | 92.0 | 98.4 | 87.7 | 113.6 | 102.6 | 96.2
7 | 10 (RRMMGMVYQCLCG[dA]; cysteine pairing not given here) [compound 10] | 24.9 | 96.6 | 97.9 | 48.7 | 102.3 | 102.6 | 76.3
8 | 19 (RRMVFQCLCG[dA]; cysteine pairing not given here) [compound 19] | 31.0 | 100.1 | 105 | 79.0 | 92 | 100.1 | 76.5
9 | 8 (RRMMGMVFQCLCG[dA]; cysteine pairing not given here) [compound 8] | 34.7 | 97.6 | 106 | 57.8 | 102.1 | 90.8 | 85.5
10 | CSCC[C@H](NC(=O)CNC(=O)[C@H](CCSC)NC(=O)[C@H](CCSC)NC(=O)[C@H](CCCNC(=N)N)NC(=O)[C@H](CCCNC(=N)N)NC(=O)[C@@H](N)CCSC)C(=O)N[C@H](C(=O)N[C@@H](Cc1ccccc1)C(=O)N[C@@H](CCC(N)=O)C(=O)N[C@@H](CS)C(=O)N[C@@H](CC(C)C)C(=O)N[C@@H](CS)C(=O)NCC(=O)N[C@@H](CC(C)C)C(=O)O)C(C)C [compound 7] | 34.6 | 109.4 | 102 | 71.3 | 98.6 | 98.1 | 100.7
11 | 14 (RRMMGMVFQCLEG[dA]) [compound 14] | 46.5 | 100.1 | 100 | 51.0 | 105.1 | 102.4 | 112.3
12 | 13 (RRMMGMVFQELCG[dA]) [compound 13] | 66.0 | 99.0 | 105 | 56.4 | 106.8 | 104.4 | 97.8
